According to paper PMC7567314 (Science (New York, N.Y.), 2020):

Columns and labels:
[1] = test system: untransfected HEK293 cells (adenylyl cyclase); test: Forskolin cAMP concentration-response with or without Ca2+; type: cell-based, human; settings: 0.5 mM CaCl2
[2] = target: wild-type MC4R stably expressed in HEK293 cells (Homo sapiens, UniProt P32245); type: binding; settings: 10 μM Ca2+; wild-type receptor; against 80 pM 125I-NDP-MSH
wild-type MC4R stably expressed in HEK293 cells, sequence (P32245 whole entry): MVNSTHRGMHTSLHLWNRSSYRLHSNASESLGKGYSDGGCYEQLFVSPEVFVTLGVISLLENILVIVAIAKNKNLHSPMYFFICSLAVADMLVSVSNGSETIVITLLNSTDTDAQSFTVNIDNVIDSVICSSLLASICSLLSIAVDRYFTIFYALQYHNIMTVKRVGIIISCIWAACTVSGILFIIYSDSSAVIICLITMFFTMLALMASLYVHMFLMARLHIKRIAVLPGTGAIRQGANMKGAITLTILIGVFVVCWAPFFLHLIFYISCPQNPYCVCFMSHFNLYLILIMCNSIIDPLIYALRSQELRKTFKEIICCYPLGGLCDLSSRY

effect of Ca2+ on Ki [2]	Molecule	Ca2+ dependence of non-receptor-mediated activation of adenylyl cyclase [1]
	C=C[C@@]1(C)CC(=O)[C@]2(O)[C@@]3(C)[C@@H](O)CCC(C)(C)[C@@H]3[C@H](O)[C@H](OC(C)=O)[C@@]2(C)O1 [forskolin]	no Ca^2+ dependence
only marginally lowered	agouti-related protein (SSRRCVRLHESCLGQQVPCCDPCATCYCRFFNAFCYCRKLGTAMNPCSRT; UniProt O00253 83-132, looked up, fragment) [AgRP]	
